Assays:
[1] = test system: doxorubicin resistant breast cancer cell MCF-7/DOX; experiment: SRB anti-proliferative assay, drug-resistant MCF-7/DOX; format: cell-based; conditions: Homo sapiens, MCF7-DOX; doxorubicin resistant MCF-7/DOX, SRB; read-out: Anti-proliferative IC50, MCF-7/DOX
Procedure: (§1) The present example evaluated the anti-tumor activity of the molecules provided by the present invention. The present example mainly used a method with SRB (sulforhodamine B) dying, in which proteins in the cell were stained with SRB dye to determine protein content in the cell so as to characterize cell growth density. Firstly, the test compound was formulated into a stock solution (10 mM), which was stored at 4° C. in a refrigerator. Prior to beginning the assay, the stock solution was diluted with DMSO into a series of different concentrations. The required concentrations were obtained by diluting with complete growth medium. Well growing cells were seeded in a 96-well plate (5000 cells/well, 100 uL) and cultured in an incubator at 37° C., 5% CO2, and 90% RH. 24 h later, the prepared compound solution (100 μL) was slowly added to cell solution in the 96-well plate, and the well with DMSO (final concentration 0.5%) instead of the drug was used as a drug free control. The plate was incubated for 48 h. In addition, a day 0 plate that was drug free was directly detected after cell seeded in the plate for 24 h. The 96-well plate was taken out and added with trichloroacetic acid (50 μL, final concentration 10%). The plate was incubated at 4° C. for 1 h to fix the cells.
(§2) The plate was washed with ultrapure water and air-dried. The plate was then stained with SRB dye (0.4% in 1% acetic acid, 100 μL) for 30 min at room temperature. The plate was then washed with 1% acetic acid and then air-dried. A Tris base solution (100 μL, 10 mM, pH10.4) was added, after which the plate was gently shaken for 1 h on an orbital shaker to ensure that the dyes were completed dissolved. The optical density (OD) was recorded on a TECAN Infinite M200 Pro multimode reader at 515 nm. The cell growth (% of control)=(OD value of wells added with drug−mean OD value of Day 0 plate)/(OD value of DMSO drug-free control well−mean OD value of Day 0 plate)*100.
(§3) We also evaluated the anti-proliferation activities of selected compounds against drug-resistant cancer cell lines.

[2] = test system: human colon cancer cells HCT8; experiment: SRB anti-proliferative assay, HCT-8; format: cell-based; conditions: HCT-8, SRB, 48 h, read-out: Anti-proliferative IC50, HCT-8
Procedure: as §1, §2

[3] = test system: human liver cancer cell HepG2; experiment: SRB anti-proliferative assay, HepG2; format: cell-based; conditions: HepG2, SRB, 48 h, read-out: Anti-proliferative IC50, HepG2
Procedure: as §1, §2

[4] = test system: human lung cancer cells A549; experiment: SRB anti-proliferative assay, A549; format: cell-based; conditions: A549, SRB, 48 h, read-out: Anti-proliferative IC50, A549
Procedure: as §1, §2

[5] = test system: human breast cancer cells MCF7; experiment: SRB anti-proliferative assay, MCF-7; format: cell-based; conditions: MCF7, MCF-7, SRB, 48 h, read-out: Anti-proliferative IC50, MCF-7
Procedure: as §1, §2

[6] = test system: human ovary cancer cells A2780; experiment: SRB anti-proliferative assay, A2780; format: cell-based; conditions: A2780, SRB, 48 h, read-out: Anti-proliferative IC50, A2780
Procedure: as §1, §2

[7] = test system: incristine resistant human ileocecum carcinoma cell HCT-8/VCT; experiment: SRB anti-proliferative assay, drug-resistant HCT-8/VCT; format: cell-based; conditions: HCT8/VCT, vincristine-resistant HCT-8/VCT, SRB, read-out: Anti-proliferative IC50, HCT-8/VCT
Procedure: as §1, §2, §3

[8] = test system: cis-platinum resistant human lung cancer cell A549/CDDP; experiment: SRB anti-proliferative assay, drug-resistant A549/CDDP; format: cell-based; conditions: cis-platinum resistant A549/CDDP, SRB, read-out: Anti-proliferative IC50, A549/CDDP
Procedure: as §1, §2, §3

[9] = test system: A549 cells; experiment: Microtubule re-assembly and mitosis on cellular level (confocal immunofluorescence); format: cell-based, human; conditions: 31 nM
Procedure: The method was primarily described here below.
A549 cells were seeded in a confocal culture dish at 8×10^4 cells/dish, grown for 24 h and divided into two groups. DMSO (0.5%) was added to one group followed by culture for 24 h. Compound 3 (31 nM) was added to the other group followed by culture for 24 h. Then cells of two dishes were fixed directly (37° C.). The remaining cells were placed in ice for 1 h, then at 37° C. for 0, 5, 10, and 15 min Cells were then fixed with paraformaldehyde (4%) for 15 min. Then cells were subject to permeabilization buffer for 15 min Primary β-tubulin mouse antibody was added and incubated at room temperature for 1 h.
3 on microtubules, microtubule re-assembly and mitosis: a, c-f, was the solvent control group (0.5% DMSO added), b, g-j was test group (31 nM compound no. 3 added), Scale bars: […].

[10] = test system: human colon cancer cells SW480; experiment: SRB anti-proliferative assay, SW480; format: cell-based; conditions: SW480, SRB, 48 h, read-out: Anti-proliferative IC50, SW480
Procedure: as §1, §2

[11] = test system: Paclitaxel-resistant human ovarian carcinoma cell A2780/TAX; experiment: SRB anti-proliferative assay, drug-resistant A2780/TAX; format: cell-based; conditions: paclitaxel-resistant A2780/TAX, SRB, read-out: Anti-proliferative IC50, A2780/TAX
Procedure: as §1, §2, §3

[12] = test system: human nasopharyngeal carcinoma cells CNE2; experiment: SRB anti-proliferative assay, CNE2; format: cell-based; conditions: CNE-2, CNE2, SRB, 48 h, read-out: Anti-proliferative IC50, CNE2
Procedure: as §1, §2

[13] = test system: tubulin; experiment: Microtubule polymerization inhibition assay (tubulin polymerization assay kit); format: biochemical; conditions: 2 mg/ml tubulin, 37° C., fluorescence, 1 hour; read-out: IC50 on inhibition of microtubules polymerization
Procedure: Tubulin polymerization assay kit was used in the example, and the accompanying experimental protocol was followed. The specific method was described below.
Prior to the assay, the compounds were diluted with DMSO into a series of different concentrations and then diluted with sterile ultra-pure water into 10× solution of compounds. A 96-well plate was pre-warmed to 37° C. for 30 min in a multi-functional microplate reader. Reaction solution (2 mg/ml tubulin, 80 mM PIPES pH6.9, 2.0 mM MgCl2, 0.5 mM EGTA, 1.0 mM GTP, 15% glycerin) is prepared by materials needed in microtubule polymerization (tubulin buffer 85 uL, Glycerin buffer 150 μL, general buffer 205 μL, GTP ([…]) 4.4 μL). 5 μL solution of compound were added into the 96-well plate and incubated in a microplate reader for 1 min. DMSO was employed as a control. The plate was taken out and then reaction solution was immediately added ([…]). The plate was then immediately placed back into the reader and vibrated for 5 seconds before recording. The microplate reader was set at 37° C., and monitored in a kinetic model with emission wavelength at 450 nm and excitation wavelength at 360 nm. The plate was mixed and measured every minute and determined for 1 hour. A curve of fluorescence intensity v.s. time was obtained and the inhibition rate was calculated by the following formula. GraphPad Prism software was used to determine the IC50. Inhibition rate=[1−(average value of plateau of test curve−value of time 0)/(average value of plateau of DMSO curve−value of time 0)]*100.

IC50 [1]: 2 nM | IC50 [2]: 16 nM | IC50 [3]: 14 nM | IC50 [4]: 11 nM | IC50 [5]: 65 nM | IC50 [6]: 13 nM | IC50 [7]: 57 nM | IC50 [8]: 121 nM | IC50 [10]: 12 nM | IC50 [11]: 190 nM | IC50 [12]: 17 nM | IC50 [13]: 487 nM
Structure (SMILES): COc1ccc(/C=C/C(=O)c2ccccc2-c2cccc(F)c2)cc1O [compound 3, (E)-1-(3′-Fluoro[1,1′-biphenyl]-2-yl)-3-(3-hydroxy-4-methoxyphenyl)prop-2-en-1-one]
Abnormal events in mitotic phase [9]: multipolarization of spindle and multinucleation | Effect on filiform structure of microtubule ([9]; 24 h): microtubule depolymerized to form discreet tublin | Automatic re-assembly (polymerization) of tubulin into microtubule after ice incubation ([9]; ice 1 h then 37° C. 0-15 min): obviously inhibited
